One data set has as its system HFF+hTERT cells. The experiment in a line: Immunofluorescence and telomere FISH (TIF) assay. Type of data set: cell-based, human. The note with it: for effect on 6-thio-dG-induced TIFs: 10 μM of ATM or 50 nM ATR specific inhibitor 2 hours prior to and with 3 μM 6-thio-dG for 48 hours. How it is done: Immunofluorescence and telomere FISH assay. Cells were fixed with 4% paraformaldehyde (PFA) for 15 minutes. Cells were then washed, permeabilized with 0.5% Triton-X-100 in PBS, blocked with 5% donkey serum and 0.3% Triton X-100 in TBS and incubated with primary antibodies against γH2A.X (1:500, rabbit), or cleaved caspase-3 (1:400, rabbit) (Cell Signaling); and/or TRF2 (1:200) (Mouse; NOVUS), as applicable, for overnight followed by TBST wash (×3) next day. Corresponding secondary antibodies were added (Alexa-Fluor 488- or 594-conjugated donkey anti-rabbit, or anti-mouse (1:500) (Jackson ImmunoResearch) for 1 hour and washed with TBS (×3) before mounting. For telomere-FISH, fixed and permeabilized cells were dehydrated with a graded ethanol concentration series, air-dried and covered with hybridization solution (70% formamide, 0.5% Blocking Reagent (Roche Diagnostics) diluted in 100 mM maleic acid and 150 mM sodium chloride, and 10 mM Tris (pH 7.5)) with 300 ng/mL PNA(CCCTAA)3-Cy3 (SEQ ID NO: 1) (Biosynthesis, USA), and denatured for 6 minutes at 84° C. followed by hybridization for at least two hours at room temperature. Cells were washed three times with 70% formamide and 10 mM Tris (pH 7.5) and three times with TBS. Finally, they were embedded with mounting media with DAPI (Vector Laboratories H1200).

Another data set has as its system telomerase. The experiment in a line: Telomerase activity assay (TRAP) in treated HFF+hTERT cells. Type of data set: cell-based, human. The note with it: IMT 2 μM. How it is done: Telomerase activity assay. Telomerase activity was assayed using the TRAPeze Telomerase Detection Kit (Millipore). Cell extracts were prepared according to the manufacturer's protocol. 50-100 ng of total protein was used to assess the telomerase activity by performing polyacrylamide gel (12.5%) electrophoresis.

Data set [1] deals with CD138-negative Multiple Myeloma Cancer Stem Cells. To be noted: cells from bone marrow aspirates of patients with multiple myeloma; cited from earlier work.
The next data set has as its system HFF + hTERT. Briefly: Cell growth assay (viable cell count, trypan blue exclusion). The data set is classed as cell-based, human. To be noted: pre-treated with IMT 2 μM 3 days, then 6-thio-dG 3 μM 3 days.
In data set [2] the test system is CD138-positive and CD138-negative cancer stem cells. The note with it: by five weeks; cited from earlier work.
For data set [3] the following is noted: children with recurrent CNS malignancies; thrombocytopenia that led to bleeding; cited from earlier work.

Turning to `O=c1cc(-c2cccc3c2Sc2ccccc2S3)oc(N2CCOCC2)c1` [ATM inhibitor, reference compound], the “effect on 6-thio-dG-induced TIFs” value in the data set with HFF+hTERT cells is recorded as “reduction in the number of cells with TIFs”.
With `CNCc1ccc(-c2cc(-c3nc(-c4ccc(S(=O)(=O)C(C)C)cc4)cnc3N)on2)cc1` [ATR inhibitor, reference compound], the “effect on 6-thio-dG-induced TIFs” value in the data set on HFF+hTERT cells is on record as “reduction in the number of cells with TIFs”.
In the case of imetelstat, the “telomerase activity (TRAP assay)” value with telomerase is listed as “inhibition of telomerase activity”. Further, the “in vitro clonogenic growth” value in data set [1] is recorded as “inhibited the in vitro clonogenic growth”. Further, the “inhibition of cell growth by 6-thio-dG in the combination treatment” value in the data set on HFF + hTERT is on record as “markedly reduced”. The “effect on 6-thio-dG-induced TIF formation” value with HFF+hTERT cells (IMT 2 μM pre-treatment, then 6-thio-dG 3 μM 3 days) is “inhibited 6-thio-dG-induced TIF formation”. In addition, in the data set on HFF+hTERT cells (IMT 2 μM with 6-thio-dG 3 μM 3 days), the “genomic DNA damage (γH2AX foci) in cells treated with 6-thio-dG” value was “reduced the genomic DNA damage”. In addition, the colony forming potential result in data set [2] was “eliminated the colony forming potential”. The “tolerability and efficacy of regimen” value in data set [3] was “intolerable and ineffective”.

Source of the values: US12594293B2, “Use of 6-thio-dG to treat therapy-resistant telomerasepositive pediatric brain tumors” (The Board of Regents of The University of Texas System, priority 2018, dated 2026).
